Data from ChEMBL document CHEMBL4020831, “Discovery of GDC-0853: A Potent, Selective, and Noncovalent Bruton's Tyrosine Kinase Inhibitor in Early Clinical Development” (J Med Chem, 2018).
Values after ≈ are worked out from the molar mass of the structure shown.

Key:
BLK = BLK (Homo sapiens, UniProt P51451); assay: Inhibition of recombinant human full length His-tagged BLK expressed in baculovirus at 1 uM by Z'-LYTE assay
EGFR = EGFR (Homo sapiens, UniProt P00533); assay: Inhibition of recombinant human cytoplasmic GST-tagged EGFR expressed in baculovirus at 1 uM by Z'-LYTE assay
JAK3 = target: T1, JAK3 (Homo sapiens, UniProt P52333); assay: Inhibition of recombinant human catalytic GST-tagged JAK3 expressed in baculovirus at 1 uM by Z'-LYTE assay
T1 sequence (P52333 whole entry): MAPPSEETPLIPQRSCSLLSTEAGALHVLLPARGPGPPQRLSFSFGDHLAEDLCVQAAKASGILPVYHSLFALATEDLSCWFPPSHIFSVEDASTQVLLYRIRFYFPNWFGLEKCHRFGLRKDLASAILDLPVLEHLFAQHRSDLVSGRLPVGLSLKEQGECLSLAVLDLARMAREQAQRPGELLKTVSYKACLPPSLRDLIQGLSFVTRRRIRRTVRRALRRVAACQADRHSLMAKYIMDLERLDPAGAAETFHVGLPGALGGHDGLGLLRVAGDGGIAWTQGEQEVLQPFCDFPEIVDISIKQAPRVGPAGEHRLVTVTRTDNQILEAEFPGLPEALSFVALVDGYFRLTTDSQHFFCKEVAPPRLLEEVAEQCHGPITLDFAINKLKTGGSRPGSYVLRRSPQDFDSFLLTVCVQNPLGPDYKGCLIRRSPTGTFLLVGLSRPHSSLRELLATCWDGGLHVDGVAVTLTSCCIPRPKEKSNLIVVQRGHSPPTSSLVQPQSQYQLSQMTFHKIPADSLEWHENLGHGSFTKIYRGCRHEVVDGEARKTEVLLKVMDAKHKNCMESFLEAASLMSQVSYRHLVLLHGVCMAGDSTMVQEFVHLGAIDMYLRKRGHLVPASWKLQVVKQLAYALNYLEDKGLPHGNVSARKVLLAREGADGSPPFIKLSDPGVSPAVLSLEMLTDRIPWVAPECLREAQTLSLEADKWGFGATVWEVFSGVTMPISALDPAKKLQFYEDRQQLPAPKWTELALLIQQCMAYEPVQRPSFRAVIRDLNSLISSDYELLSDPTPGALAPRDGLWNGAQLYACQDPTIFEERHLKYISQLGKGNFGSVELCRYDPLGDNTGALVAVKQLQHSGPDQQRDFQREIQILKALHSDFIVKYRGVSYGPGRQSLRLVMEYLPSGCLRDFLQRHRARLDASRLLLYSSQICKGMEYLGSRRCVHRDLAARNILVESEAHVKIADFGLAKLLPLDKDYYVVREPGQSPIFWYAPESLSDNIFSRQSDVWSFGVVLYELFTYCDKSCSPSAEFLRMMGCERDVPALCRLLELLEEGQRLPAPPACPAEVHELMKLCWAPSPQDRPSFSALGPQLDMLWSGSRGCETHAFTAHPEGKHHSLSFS

ERBB2 = ERBB2 (Homo sapiens, UniProt P04626); assay: Inhibition of recombinant human cytoplasmic His-tagged ERBB2 expressed in baculovirus at 1 uM by Z'-LYTE assay
ERBB4 = ERBB4 (Homo sapiens, UniProt Q15303); assay: Inhibition of recombinant human cytoplasmic GST-tagged ERBB4 expressed in baculovirus at 1 uM by Z'-LYTE assay
LTK = LTK (Homo sapiens, UniProt P29376); assay: Inhibition of recombinant human cytoplasmic GST-tagged LTK expressed in baculovirus at 1 uM by Z'-LYTE assay
TEC = target: T2, TEC (Homo sapiens, UniProt P42680); assay: Inhibition of recombinant human cytoplasmic full length His-tagged TEC expressed in baculovirus at 1 uM by Z'-LYTE assay
T2 sequence (P42680 whole entry): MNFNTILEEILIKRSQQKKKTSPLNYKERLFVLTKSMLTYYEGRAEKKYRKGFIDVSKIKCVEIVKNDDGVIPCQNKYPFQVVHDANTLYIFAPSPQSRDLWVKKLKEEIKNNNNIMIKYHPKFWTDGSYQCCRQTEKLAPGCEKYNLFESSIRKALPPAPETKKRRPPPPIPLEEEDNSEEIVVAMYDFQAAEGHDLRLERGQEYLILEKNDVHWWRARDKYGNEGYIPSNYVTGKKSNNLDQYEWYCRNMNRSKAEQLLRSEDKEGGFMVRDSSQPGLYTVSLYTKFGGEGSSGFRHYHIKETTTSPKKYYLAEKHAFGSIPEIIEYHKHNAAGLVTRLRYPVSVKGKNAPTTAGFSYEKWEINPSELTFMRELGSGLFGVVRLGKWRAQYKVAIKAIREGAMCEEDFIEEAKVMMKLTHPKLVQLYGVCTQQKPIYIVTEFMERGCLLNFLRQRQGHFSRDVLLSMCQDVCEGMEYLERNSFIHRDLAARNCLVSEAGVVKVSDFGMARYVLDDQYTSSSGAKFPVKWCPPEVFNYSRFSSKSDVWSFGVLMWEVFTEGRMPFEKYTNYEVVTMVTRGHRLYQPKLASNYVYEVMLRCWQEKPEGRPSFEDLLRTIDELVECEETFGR

TXK = target: T3, TXK (Homo sapiens, UniProt P42681); assay: Inhibition of human full length GST-tagged TXK expressed in baculovirus at 1 uM by Z'-LYTE assay
T3 sequence (P42681 whole entry): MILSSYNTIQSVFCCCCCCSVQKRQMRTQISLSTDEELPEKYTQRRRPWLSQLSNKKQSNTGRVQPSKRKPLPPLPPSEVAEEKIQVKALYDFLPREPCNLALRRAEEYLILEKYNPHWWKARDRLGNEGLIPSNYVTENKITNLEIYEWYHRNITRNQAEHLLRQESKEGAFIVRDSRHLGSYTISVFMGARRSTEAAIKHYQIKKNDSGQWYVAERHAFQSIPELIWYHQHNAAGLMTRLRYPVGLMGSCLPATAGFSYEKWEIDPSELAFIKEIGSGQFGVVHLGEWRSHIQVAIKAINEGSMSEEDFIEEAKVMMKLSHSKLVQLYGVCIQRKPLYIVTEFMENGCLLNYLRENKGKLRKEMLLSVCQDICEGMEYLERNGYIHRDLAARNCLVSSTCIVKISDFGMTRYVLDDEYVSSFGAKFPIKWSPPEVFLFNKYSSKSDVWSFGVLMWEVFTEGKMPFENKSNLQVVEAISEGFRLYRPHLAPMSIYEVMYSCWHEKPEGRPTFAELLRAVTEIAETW

BMX = BMX (Homo sapiens, UniProt P51813); assay: Inhibition of cytoplasmic recombinant human full length His-tagged BMX expressed in baculovirus at 1 uM by Z'-LYTE assay
[1] = Clearance in human liver microsomes at 1 uM incubated up to 60 mins by LC-MS/MS method; format: ADME, microsome
physchem = settings: buffer, pH 7.4
[2] = Clearance in human hepatocytes at 1 uM incubated up to 60 mins by LC-MS/MS method; format: ADME, cell-based, Hepatocyte
[3] = Permeability across apical to basolateral in MDCK1 cells; format: ADME, cell-based, Canis lupus familiaris; settings: dog, MDCK; read-out: permeability
in vitro = settings: dog, MDCK
Description: Efflux ratio of permeability in MDCK1 cells

[4] = target: T4, Tyrosine-protein kinase BTK (Homo sapiens, UniProt Q06187); assay: Inhibition of human recombinant C-terminal polyhistidine tagged BTK (1 to 659 residues)-mediated synthetic peptide substrate phosphorylation expressed in baculovirus-infected insect cells
[5] = target: T4, Tyrosine-protein kinase BTK
Description: Inhibition of BTK in human whole blood-derived CD19+ B cells assessed as suppression of anti-IgM stimulated-CD69 expression preincubated for 1 hr followed by IgM stimulation for 18 hrs by FACS analysis

[6] = target: T4, Tyrosine-protein kinase BTK; remark: listed apart in the source
Description: Inhibition of BTK in human whole blood derived-basophils assessed as suppression of IgE mediated-FcepsilonR ligation-stimulated CD63 expression

[7] = Kinetic solubility of the compound; format: physicochemical; settings: read-out: Kinetic_solubility

Chain of LTK (P29376 whole entry): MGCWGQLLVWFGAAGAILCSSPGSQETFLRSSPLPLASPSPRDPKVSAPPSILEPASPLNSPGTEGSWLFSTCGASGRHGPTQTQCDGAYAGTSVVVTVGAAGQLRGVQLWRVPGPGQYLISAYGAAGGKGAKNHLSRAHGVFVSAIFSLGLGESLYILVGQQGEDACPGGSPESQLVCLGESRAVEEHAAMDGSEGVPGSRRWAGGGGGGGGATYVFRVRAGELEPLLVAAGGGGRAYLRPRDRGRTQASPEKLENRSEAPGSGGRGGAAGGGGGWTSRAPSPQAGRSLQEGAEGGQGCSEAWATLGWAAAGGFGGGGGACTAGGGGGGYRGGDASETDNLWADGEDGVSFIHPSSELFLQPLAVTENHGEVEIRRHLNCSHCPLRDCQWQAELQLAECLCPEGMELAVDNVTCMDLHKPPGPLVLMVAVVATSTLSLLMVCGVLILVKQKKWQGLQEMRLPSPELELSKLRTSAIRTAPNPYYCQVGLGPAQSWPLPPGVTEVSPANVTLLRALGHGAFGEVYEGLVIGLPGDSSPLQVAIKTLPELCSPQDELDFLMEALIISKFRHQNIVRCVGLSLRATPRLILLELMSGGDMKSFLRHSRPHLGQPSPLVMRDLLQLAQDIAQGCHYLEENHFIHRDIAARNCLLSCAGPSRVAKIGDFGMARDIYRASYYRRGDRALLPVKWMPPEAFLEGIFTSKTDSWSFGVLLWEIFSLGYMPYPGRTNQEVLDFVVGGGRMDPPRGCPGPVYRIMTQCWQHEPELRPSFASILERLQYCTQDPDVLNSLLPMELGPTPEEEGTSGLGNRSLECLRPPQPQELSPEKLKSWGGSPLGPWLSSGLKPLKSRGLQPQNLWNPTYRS
Chain of ERBB2 (P04626 whole entry): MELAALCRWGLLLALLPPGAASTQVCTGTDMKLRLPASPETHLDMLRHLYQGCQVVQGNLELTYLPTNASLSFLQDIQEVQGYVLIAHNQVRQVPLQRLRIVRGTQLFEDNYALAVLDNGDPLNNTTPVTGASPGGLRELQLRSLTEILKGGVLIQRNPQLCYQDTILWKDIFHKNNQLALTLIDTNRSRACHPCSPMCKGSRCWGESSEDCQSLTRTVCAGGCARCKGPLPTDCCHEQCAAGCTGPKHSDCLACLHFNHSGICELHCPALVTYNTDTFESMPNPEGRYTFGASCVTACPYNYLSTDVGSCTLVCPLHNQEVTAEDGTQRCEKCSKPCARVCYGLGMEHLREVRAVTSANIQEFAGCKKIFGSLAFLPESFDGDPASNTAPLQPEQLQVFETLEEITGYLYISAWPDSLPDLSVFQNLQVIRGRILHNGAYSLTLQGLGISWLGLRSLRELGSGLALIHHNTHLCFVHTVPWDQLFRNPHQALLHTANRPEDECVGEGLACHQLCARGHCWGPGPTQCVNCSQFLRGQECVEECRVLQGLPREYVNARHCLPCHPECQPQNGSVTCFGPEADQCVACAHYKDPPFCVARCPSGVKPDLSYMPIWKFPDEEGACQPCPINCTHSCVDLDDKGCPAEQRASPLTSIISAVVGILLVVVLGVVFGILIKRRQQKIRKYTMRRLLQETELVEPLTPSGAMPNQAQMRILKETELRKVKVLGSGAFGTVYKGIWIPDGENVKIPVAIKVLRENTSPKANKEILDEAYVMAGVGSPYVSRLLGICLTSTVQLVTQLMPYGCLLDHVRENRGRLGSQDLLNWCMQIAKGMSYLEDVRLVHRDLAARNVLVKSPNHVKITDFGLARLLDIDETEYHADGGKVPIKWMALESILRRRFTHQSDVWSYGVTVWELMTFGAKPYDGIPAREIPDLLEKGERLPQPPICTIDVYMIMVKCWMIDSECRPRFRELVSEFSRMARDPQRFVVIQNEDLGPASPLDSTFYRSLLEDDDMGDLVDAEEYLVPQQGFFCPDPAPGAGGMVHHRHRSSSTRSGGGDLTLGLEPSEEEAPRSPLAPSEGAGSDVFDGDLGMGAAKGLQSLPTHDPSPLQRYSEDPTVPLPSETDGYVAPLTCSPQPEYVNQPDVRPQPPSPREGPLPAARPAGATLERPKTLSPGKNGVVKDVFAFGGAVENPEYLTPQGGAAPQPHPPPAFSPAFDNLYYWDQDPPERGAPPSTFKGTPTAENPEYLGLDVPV
Chain of ERBB4 (Q15303 whole entry): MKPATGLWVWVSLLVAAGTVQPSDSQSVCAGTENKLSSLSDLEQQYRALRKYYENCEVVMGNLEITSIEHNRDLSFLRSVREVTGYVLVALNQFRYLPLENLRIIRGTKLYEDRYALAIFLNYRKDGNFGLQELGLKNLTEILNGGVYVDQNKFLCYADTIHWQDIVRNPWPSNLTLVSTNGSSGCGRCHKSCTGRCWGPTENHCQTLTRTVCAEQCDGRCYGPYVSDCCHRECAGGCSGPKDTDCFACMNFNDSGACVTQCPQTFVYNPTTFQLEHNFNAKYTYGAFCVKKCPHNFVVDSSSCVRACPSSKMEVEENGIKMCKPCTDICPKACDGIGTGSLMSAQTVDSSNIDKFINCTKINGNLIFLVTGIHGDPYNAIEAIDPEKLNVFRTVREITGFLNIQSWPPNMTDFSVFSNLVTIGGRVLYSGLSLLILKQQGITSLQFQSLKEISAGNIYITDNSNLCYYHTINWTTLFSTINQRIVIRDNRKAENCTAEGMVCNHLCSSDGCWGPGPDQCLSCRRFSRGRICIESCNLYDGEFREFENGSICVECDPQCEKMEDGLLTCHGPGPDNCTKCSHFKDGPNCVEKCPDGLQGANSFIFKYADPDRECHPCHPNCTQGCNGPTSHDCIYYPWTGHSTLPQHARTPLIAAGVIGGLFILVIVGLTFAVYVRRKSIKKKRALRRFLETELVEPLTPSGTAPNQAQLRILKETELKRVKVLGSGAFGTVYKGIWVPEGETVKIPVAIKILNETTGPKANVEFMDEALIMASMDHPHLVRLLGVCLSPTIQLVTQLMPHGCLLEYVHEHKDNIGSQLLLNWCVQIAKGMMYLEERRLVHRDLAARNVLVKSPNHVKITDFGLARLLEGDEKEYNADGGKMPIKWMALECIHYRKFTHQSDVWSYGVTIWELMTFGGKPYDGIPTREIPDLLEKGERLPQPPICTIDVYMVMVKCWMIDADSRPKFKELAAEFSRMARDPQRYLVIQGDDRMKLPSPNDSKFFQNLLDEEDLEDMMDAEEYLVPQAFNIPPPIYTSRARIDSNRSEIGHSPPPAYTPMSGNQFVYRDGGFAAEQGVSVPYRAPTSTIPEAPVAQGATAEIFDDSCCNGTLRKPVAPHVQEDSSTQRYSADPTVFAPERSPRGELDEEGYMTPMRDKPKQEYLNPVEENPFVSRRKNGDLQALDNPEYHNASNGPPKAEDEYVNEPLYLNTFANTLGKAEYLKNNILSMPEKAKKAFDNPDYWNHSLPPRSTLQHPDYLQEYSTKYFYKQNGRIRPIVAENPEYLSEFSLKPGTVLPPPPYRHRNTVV
Chain of BLK (P51451 whole entry): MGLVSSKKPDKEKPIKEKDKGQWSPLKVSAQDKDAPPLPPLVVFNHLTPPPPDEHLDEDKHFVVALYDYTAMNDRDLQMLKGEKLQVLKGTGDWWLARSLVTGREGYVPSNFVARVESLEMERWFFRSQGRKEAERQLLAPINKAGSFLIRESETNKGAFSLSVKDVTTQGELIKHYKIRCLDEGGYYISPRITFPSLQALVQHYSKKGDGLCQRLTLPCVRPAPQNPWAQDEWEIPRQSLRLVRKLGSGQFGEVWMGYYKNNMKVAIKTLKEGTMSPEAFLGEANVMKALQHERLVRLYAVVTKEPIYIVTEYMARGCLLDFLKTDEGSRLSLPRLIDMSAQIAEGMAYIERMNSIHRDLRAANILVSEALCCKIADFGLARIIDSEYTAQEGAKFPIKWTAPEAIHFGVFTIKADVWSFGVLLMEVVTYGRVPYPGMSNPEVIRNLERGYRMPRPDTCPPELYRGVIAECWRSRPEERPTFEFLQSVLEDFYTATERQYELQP
T4 sequence (Q06187 whole entry, the tested form may be a part): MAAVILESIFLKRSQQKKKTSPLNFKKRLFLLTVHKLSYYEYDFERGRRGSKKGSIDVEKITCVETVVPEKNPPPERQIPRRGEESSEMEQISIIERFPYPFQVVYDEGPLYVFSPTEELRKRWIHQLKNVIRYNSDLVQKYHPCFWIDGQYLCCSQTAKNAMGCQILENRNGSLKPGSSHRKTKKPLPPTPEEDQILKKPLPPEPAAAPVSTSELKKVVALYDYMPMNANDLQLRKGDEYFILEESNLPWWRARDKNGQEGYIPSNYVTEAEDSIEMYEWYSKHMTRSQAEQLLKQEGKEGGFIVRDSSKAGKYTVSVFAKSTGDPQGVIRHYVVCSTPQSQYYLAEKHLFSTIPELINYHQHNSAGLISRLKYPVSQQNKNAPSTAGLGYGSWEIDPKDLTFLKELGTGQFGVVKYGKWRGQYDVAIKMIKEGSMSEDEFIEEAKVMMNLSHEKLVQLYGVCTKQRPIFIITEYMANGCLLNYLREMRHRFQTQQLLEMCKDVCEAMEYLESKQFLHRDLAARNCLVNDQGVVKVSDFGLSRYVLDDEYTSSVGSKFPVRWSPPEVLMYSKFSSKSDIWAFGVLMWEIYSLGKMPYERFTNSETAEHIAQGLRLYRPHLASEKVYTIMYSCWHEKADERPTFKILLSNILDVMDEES

Structure (SMILES)	inhibition at 1 µM (BLK) [%]	inhibition at 1 µM (EGFR) [%]	inhibition at 1 µM (JAK3) [%]	inhibition at 1 µM (ERBB2) [%]	inhibition at 1 µM (ERBB4) [%]	inhibition at 1 µM (LTK) [%]	inhibition at 1 µM (TEC) [%]	inhibition at 1 µM (TXK) [%]	inhibition at 1 µM (BMX) [%]	CLhep predicted at 1 µM [1] [mL/min/kg]	logD (physchem)	CLhep predicted at 1 µM [2] [mL/min/kg]	Papp A→B [3] [×10⁻⁶ cm/s]	efflux ratio (in vitro)	Ki [4] [nM]	IC50 [5] [nM]	IC50 [6] [nM]	solubility kinetic [7] [µM]
CC#CC(=O)N1CCC[C@H]1c1nc(-c2ccc(C(=O)Nc3ccccn3)cc2)c2c(N)nccn12 [ACALABRUTINIB]	16	-1	-3	36	93	2	71	31	–	–	–	–	–	–	–	–	–	–
C=CC(=O)Nc1cccc(Nc2nc(Nc3ccc(OCCOC)cc3)ncc2F)c1 [SPEBRUTINIB]	44	34	89	6	76	19	92	95	99	–	–	–	–	–	–	–	–	–
C=CC(=O)N1CCC(CNc2ncnc(N)c2-c2ccc(Oc3ccccc3)cc2)CC1 [EVOBRUTINIB]	42	1	0	1	57	-2	80	30	–	–	–	–	–	–	–	–	–	–
CC#CC(=O)N1CC[C@@H](n2c(=O)n(-c3ccc(Oc4ccccc4)cc3)c3c(N)ncnc32)C1 [TIRABRUTINIB]	47	-2	-7	7	28	-5	86	66	–	–	–	–	–	–	–	–	–	–
Cc1c(-c2c(F)cc(C(N)=O)c3[nH]c4c(c23)CC[C@@H](C(C)(C)O)C4)cccc1-n1c(=O)c2cccc(F)c2n(C)c1=O	82	7	-2	1	38	47	98	81	80	–	–	–	–	–	–	88.3	374	–
C=CC(=O)N1CCC[C@@H](n2nc(-c3ccc(Oc4ccccc4)cc3)c3c(N)ncnc32)C1 [IBRUTINIB]	102	–	80	91	93	81	100	93	–	–	–	–	–	–	–	–	–	–
Cn1cc(-c2cc(F)cc(N3CCn4c(cc5c4CCCC5)C3=O)c2CO)cc(Nc2ccc(N3CCN(C4COC4)CC3)cn2)c1=O	–	–	–	–	–	–	–	–	–	12.3	3.1	–	–	–	–	–	–	12 (≈ 7.85 µg/mL)

Further lines, results first:

inhibition at 1 µM (BLK) [%]	inhibition at 1 µM (EGFR) [%]	inhibition at 1 µM (JAK3) [%]	inhibition at 1 µM (ERBB2) [%]	inhibition at 1 µM (ERBB4) [%]	inhibition at 1 µM (LTK) [%]	inhibition at 1 µM (TEC) [%]	inhibition at 1 µM (TXK) [%]	inhibition at 1 µM (BMX) [%]	CLhep predicted at 1 µM [1] [mL/min/kg]	logD (physchem)	CLhep predicted at 1 µM [2] [mL/min/kg]	Papp A→B [3] [×10⁻⁶ cm/s]	efflux ratio (in vitro)	Ki [4] [nM]	IC50 [5] [nM]	IC50 [6] [nM]	solubility kinetic [7] [µM]	Structure (SMILES)
–	–	–	–	–	–	–	–	–	15	2.8	14	7.8	–	–	–	–	–	C[C@@H]1CN(C2COC2)CCN1c1ccc(Nc2cc(-c3ccnc(N4CCn5c(cc6c5CC(C)(C)C6)C4=O)c3CO)cn(C)c2=O)nc1
–	–	–	–	–	–	–	–	–	12	3.5	12	7.2	0.9	1.3	10.2	–	–	C[C@@H]1CN(c2ccc(Nc3cc(-c4ccnc(N5CCn6c(cc7c6CC(C)(C)C7)C5=O)c4CO)cn(C)c3=O)nc2)[C@@H](C)CN1C1COC1
–	–	–	–	–	–	–	–	–	16	4.4	–	14.2	0.6	4	116	–	–	Cn1cc(-c2ccnc(N3CCn4c(cc5c4CC(C)(C)C5)C3=O)c2CO)cc(Nc2ccc(N3CCN(CCC(F)(F)F)CC3)cn2)c1=O
–	–	–	–	–	–	–	–	–	11	3.7	13	17.3	0.9	–	16.1	–	–	C[C@H]1CN(C2COC2)CCN1c1ccc(Nc2cc(-c3ccnc(N4CCn5c(cc6c5CC(C)(C)C6)C4=O)c3CO)nn(C)c2=O)nc1
–	–	–	–	–	–	–	–	–	16	3	–	48.5	0.4	0.43	23.5	–	–	Cn1cc(-c2ccnc(N3CCn4c(cc5c4CC(C)(C)C5)C3=O)c2CO)cc(Nc2ccc(C3CN(C4COC4)C3)cn2)c1=O
–	–	–	–	–	–	–	–	–	12	–	10	15.6	1.2	0.8	51.5	–	–	C[C@H]1CN(C2COC2)CCN1c1cnc(Nc2cc(-c3ccnc(N4CCn5c(cc6c5CC(C)(C)C6)C4=O)c3CO)cn(C)c2=O)cn1
–	–	–	–	–	–	–	–	–	12	3.6	16	9.5	0.9	0.96	15.9	–	–	CC[C@H]1CN(C2COC2)CCN1c1ccc(Nc2cc(-c3ccnc(N4CCn5c(cc6c5CC(C)(C)C6)C4=O)c3CO)cn(C)c2=O)nc1
